Patent publication US7932272B2, “Antifungal agent containing heterocyclic compound” (Eisai R&D Management Co., Ltd., priority 2003, dated 2011)
Values after ≈ are worked out from the molar mass of the structure shown.

Columns and labels:
[1] = system: A. fumigatus Tsukuba strain; experiment: Anti-Aspergillus activity (MIC measurement); type: cell-based; conditions: MIC by visual inspection, 48 hours at 30 to 35° C.
Description: (§1) For the C. albicans E81022 strain, a fungal suspension from a standing culture for 48 hours at 30° C. in a Sabouraud dextrose liquid culture medium (SDB) was diluted 10,000-fold with a 1.3-fold concentrated SDB to adjust to a fungal suspension of 1 to 2×10^4 cells/ml. For the A. fumigatus Tsukuba strain, −80° C. stored strain was diluted 1,000-fold with a 1.3-fold concentrated SDB to adjust to a fungal suspension of 2 to 3×10^3 cells/ml.
(§2) Using a U-bottomed 96 well plate, 8 samples/plate (A to H) of sample dilution solutions were prepared. On the 3rd row of each plate was dispensed 240 μl of sterilized and distilled water, and on the 2nd and 4th to 12th rows were dispensed 125 μl of 4% dimethylsulfoxide solution. Weighed sample was dissolved in dimethylsulfoxide to prepare a 2.5 to 20 mg/ml solution, 10 μl of this solution was then added to the 3rd row of the prepared plate, and 10 steps of two-fold step dilutions (125 μl of solution+125 μl of 4% dimethylsulfoxide) were performed on the plate.
(§3) The fungal suspension preprared in (1) was used in the amount of 75 μl/well to inoculate a V-bottomed or flat-bottomed 96 well plate containing 25 μl/well of test compound dilution solution prepared in (2), and a standing culture was carried out aerobically for 48 hours at 30 to 35° C.

[2] = system: C. albicans E81022 strain; experiment: Anti-Candida activity (MIC measurement); type: cell-based; conditions: E81022STRAIN, MIC by visual inspection, C. albicans E81022, 48 hours at 30 to 35° C.
Description: as §1, §2, §3

MIC [1] [µg/mL]	MIC [2] [µg/mL]	Structure (SMILES)
1.56 (≈ 4.35 µM)	0.78 (≈ 2.18 µM)	Cc1nc2ccc(C(=O)NCc3cccc(Oc4ccccc4)c3)cc2o1 [Example K-1, 2-Methyl-benzoxazole-6-carboxylic acid 3-phenoxybenzylamide]
0.2 (≈ 0.51 µM)	0.2 (≈ 0.51 µM)	O=C(NCc1ccc(OCc2cccc(F)c2)cc1)c1ccc2ncsc2c1 [Example L-4, Benzothiazole-6-carboxylic acid 4-(3-fluoro-benzyloxy)-benzylamide]
0.78 (≈ 2.29 µM)	0.39 (≈ 1.15 µM)	c1ccc(COc2ccc(NCc3ccc4ncccc4c3)cc2)cc1 [Example W-1, (4-Benzyloxy-phenyl)-quinolin-6-ylmethyl-amine]
3.13 (≈ 8.54 µM)	0.78 (≈ 2.13 µM)	O=C(NCc1ccc(Oc2ccccc2)s1)c1cnc2ccsc2c1 [Example U-2, Thieno[3,2-b]pyridine-6-carboxylic acid (5-phenoxy-thiophen-2-yl methyl)-amide]
0.78 (≈ 2.13 µM)	0.1 (≈ 0.273 µM)	O=C(NCc1ccc(Oc2ccccc2)s1)c1ccc2ncsc2c1 [Example L-7, Benzothiazole-6-carboxylic acid (5-phenoxythiophen-2-ylmethyl)-amide]
1.56 (≈ 4.32 µM)	1.56 (≈ 4.32 µM)	O=C(NCc1cccc(Oc2ccccc2)c1)c1ccc2nsnc2c1 [Example M-1, Benzo[1,2 5]thiadiazole-5-carboxylic acid 3-phenoxybenzylamide]

More lines, now with the values behind:

Structure (SMILES)	MIC [1] [µg/mL]	MIC [2] [µg/mL]
O=C(Cc1cccc(Oc2ccccc2)c1)Nc1ccc2ncccc2c1 [Example E-19, 2-(3-Phenoxy-phenyl)-N-quinolin-6-yl-acetamide]	1.56 (≈ 4.4 µM)	0.78 (≈ 2.2 µM)
O=C(NCc1ccc(Cc2cccc(Cl)c2)s1)c1ccc2ncccc2c1 [Example E-71, Quinoline-6-carboxylic acid (5-(3-chlorobenzyl)-thiophen-2-ylmethyl)-amide]	1.56 (≈ 3.97 µM)	0.2 (≈ 0.509 µM)
N#Cc1cccc(Oc2ccc(CNC(=O)c3ccc4ncccc4c3)s2)c1 [Example E-64, Quinoline-6-carboxylic acid (5-(3-cyano-phenoxy)-thiophen-2-ylmethyl)-amide]	6.25 (≈ 16.2 µM)	0.2 (≈ 0.519 µM)
O=C(NCc1cccc(Oc2ccccc2)c1)c1ccc2ncccc2c1 [Example E-11, Quinoline-6-carboxylic acid 3-phenoxybenzylamide]	1.56 (≈ 4.4 µM)	0.39 (≈ 1.1 µM)
O=C(NCc1ccc(OCc2ccccc2)cc1)c1ccc2ncccc2c1 [Example E-8, quinoline-6-carboxylic acid 4-benzyloxybenzylamide]	0.2 (≈ 0.543 µM)	0.2 (≈ 0.543 µM)
Nc1ncccc1C(=S)NCc1ccc(OCc2ccccc2)cc1 [Example A-22, 2-Amino-N-(4-benzyloxy-benzyl)-thionicotinamide]	3.13 (≈ 8.96 µM)	0.78 (≈ 2.23 µM)
Nc1nc(NCCCn2nccn2)ccc1C(=O)NCc1ccc(Oc2ccccc2)s1 [Example A-81, 2-Amino-N-(5-phenoxy-thiophen-2-ylmethyl)-6-(3-[1,2,3]-triazol-2-yl-propylamino)-nicotinamide]	6.25 (≈ 13.9 µM)	3.13 (≈ 6.96 µM)
COc1ccc(C(=O)NCc2ccc(Oc3ccccc3)s2)c(N)n1 [Example A-116, 2-Amino-6-methoxy-N-(5-phenoxy-thiophen-2-ylmethyl)-nicotinamide]	3.13 (≈ 8.81 µM)	0.39 (≈ 1.1 µM)
N#C/N=C(\NCc1ccc(OCc2ccccc2)cc1)c1ccc2ncccc2c1 [Example E-45, N-(4-Benzyloxy-benzyl)-N′-cyano-quinoline-6-carboxamidine]	3.13 (≈ 7.98 µM)	3.13 (≈ 7.98 µM)
O=C(NCc1ccc(Oc2ccc(F)cc2)s1)c1ccc2ncccc2c1 [Example E-67, Quinoline-6-carboxylic acid (5-(4-fluorophenoxy)thiophen-2-yl)methyl amide]	0.78 (≈ 2.06 µM)	0.39 (≈ 1.03 µM)
Nc1ncncc1C(=O)NCc1ccc(Oc2ccccc2)s1 [Example B-1, 4-Amino-pyrimidine-5-carboxylic acid (5-phenoxy-thiophen-2-ylmethyl)-amide]	6.25 (≈ 19.1 µM)	3.13 (≈ 9.59 µM)
